Where two headings read alike, the source gives them in different places.
Legend:
[1] = test system: KG-1a cells; settings: 48 hours
Procedure: The KG-1a cells, which are an early phenotype of human acute myeloid leukemia (American Type Culture Collection, Manassas, Va.), were grown in complete growth medium [Iscove's Modified Dulbeco's Medium (American Type Culture Collection, Manassas, Va.)] supplemented with 20% fetal bovine serum (Sigma-Aldrich, UK) and 1% Penicillin-Streptomycin (GIBCO Invitrogen Corporation, Carlsbad, Calif.) at 37° C. in a humidified 5% CO2 incubator.
The KG-1a cells were cultured for 48 hours in 12-well tissue culture plates, each containing complete growth medium at a concentration of 2×10^6 cells 1 ml, and each well contained a total volume of two milliliters. Thalidomide (TOCRIS Bioscience, Ellisville, Mo.) was added at a concentration of 5 mg/L whether used alone or in combination with other chemotherapeutic agents. Interleukin-2 (Proleukin®, Aldesleuken for injection) (CHIRON Therapeutics, Emeryville, Calif.) was added at a concentration of 200 IU/ml whether used alone or in combination with thalidomide or arsenic trioxide. Arsenic trioxide (Sigma-Aldrich, Inc., St. Louis, Mo.) was added at concentrations of 2 μM and 4 μM with and without 100 μM of ascorbic acid in the first flow cytometry study, and at 4 μM in the rest of the studies either alone or combined with thalidomide and interleukin-2. A control culture containing neither thalidomide nor interleukin-2 nor arsenic trioxide was set up in conditions otherwise identical. All the control and treated cultures were set in duplicate and incubated for 48 hours at 37° C. in a humidified 5% CO2 incubator.
The detection of apoptosis and necrosis by Annex in V-FITC assay using flow cytometric analysis was carried out as described in the Annexin V-FITC Apoptosis Detection Kit (BioVision, Inc., Mountain View, Calif.) manual. Staurosporine (Sigma-Aldrich, Inc., St. Louis, Mo.) was used as a positive control at a concentration of 10 μM and was incubated only for 24 hours with the cells. Briefly, after the KG-1a cells were incubated for 48 hours, they were harvested by centrifugation at 1,300 RPM for five minutes. Cells were resuspended in 500 μl of 1× binding buffer. Then 5 μl of Annexin V-FITC and 5 μl of propidium iodide (PI) were added to all tubes (except the negative control which contained no staining and no treatment; for the Annexin V-FITC controls only the Annexin V-FITC was added; and for the Propidium Iodide control only PI was added). All tubes were incubated at room temperature for five minutes in the dark.
Results were subjected to one way ANOVA. Statistical significant differences between means was set at p<0.05.

[2] = test system: MCF-7; settings: MCF-7 cell line; Du et al. 2005; read-out: IC50 (inhibitory concentration of 50%), tumor growth; cited from earlier work
[3] = test system: HL-60; settings: HL-60 cell line; Du et al. 2005; read-out: IC50 (inhibitory concentration of 50%), tumor growth; cited from earlier work
[4] = test system: APL cell line NB4; parameters: unit not given here; settings: APL studies, cited from earlier work
[5] = target: T1, PML/RAR-α fusion protein (Homo sapiens, UniProt P10276+P29590); parameters: unit not given here; settings: NB4 cells; cited from earlier work
T1 construct: host or cells: NB4 cells (endogenous t(15;17) fusion)
T1 sequence (P29590+P10276 with tags, fused parts or gaps): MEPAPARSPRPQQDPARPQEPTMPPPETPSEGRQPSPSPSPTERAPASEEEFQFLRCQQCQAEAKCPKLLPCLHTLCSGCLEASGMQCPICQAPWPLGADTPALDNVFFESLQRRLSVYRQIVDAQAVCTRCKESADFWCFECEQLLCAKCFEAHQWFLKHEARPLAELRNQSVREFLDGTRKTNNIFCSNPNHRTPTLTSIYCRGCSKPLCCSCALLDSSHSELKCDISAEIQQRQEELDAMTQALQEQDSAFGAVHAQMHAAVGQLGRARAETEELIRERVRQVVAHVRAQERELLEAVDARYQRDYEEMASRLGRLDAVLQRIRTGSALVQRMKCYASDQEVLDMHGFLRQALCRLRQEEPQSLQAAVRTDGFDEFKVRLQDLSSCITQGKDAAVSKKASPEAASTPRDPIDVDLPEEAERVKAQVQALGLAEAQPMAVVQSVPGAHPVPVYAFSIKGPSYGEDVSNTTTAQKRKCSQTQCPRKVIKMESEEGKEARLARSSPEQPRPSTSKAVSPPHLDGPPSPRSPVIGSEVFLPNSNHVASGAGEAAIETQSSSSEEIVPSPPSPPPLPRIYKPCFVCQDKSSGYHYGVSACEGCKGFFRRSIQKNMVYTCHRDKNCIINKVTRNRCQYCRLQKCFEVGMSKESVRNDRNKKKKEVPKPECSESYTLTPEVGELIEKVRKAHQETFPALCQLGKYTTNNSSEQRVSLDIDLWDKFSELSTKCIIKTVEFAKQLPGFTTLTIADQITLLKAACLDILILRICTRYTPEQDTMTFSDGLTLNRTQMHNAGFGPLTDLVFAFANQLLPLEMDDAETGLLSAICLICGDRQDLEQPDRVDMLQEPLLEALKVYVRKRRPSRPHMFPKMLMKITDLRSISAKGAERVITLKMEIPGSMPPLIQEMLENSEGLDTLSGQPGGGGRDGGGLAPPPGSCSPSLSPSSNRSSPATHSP

[6] = thalidomide 5 mg/L, As2O3 4 μM, IL-2 200 IU/ml, alone or combined
[7] = As2O3 2 μM, with or without ascorbic acid 100 μM
[8] = As2O3 4 μM, with or without ascorbic acid 100 μM

## O=C1CCC(N2C(=O)c3ccccc3C2=O)C(=O)N1 (stereo not drawn) [Thalidomide, α-(N-phthalimido) glutarimide]
[1]; [6]
  % Early apoptosis: 7.92%
  % Late apoptosis: 49.385%
  % Necrosis: 1.155%
[1]; thalidomide 5 mg/L, As2O3 4 μM, IL-2 200 IU/ml, alone or combined, listed as thalidomide
  % Late apoptosis: 49.39%
[2]
  IC50: 18.4 ± 2.34 µM
[3]
  IC50: 22.1 ± 2.15 µM

## arsenic trioxide [As2O3]
[1]; [7]
  % Early apoptosis: 14.50%
  % Late apoptosis: 6.88%
  % Live Cells: 75.94%
  % Necrotic Cells: 2.68%
[1]; [8]
  % Early apoptosis: 20.87%
  % Late apoptosis: 8.31%
  % Live Cells: 69.56%
  % Necrotic Cells: 1.26%
[1]; [6]
  % Early apoptosis: 10.095%
  % Late apoptosis: 16.965%
  % Necrosis: 0.59%
  cytotoxic effect (in words): modest cytotoxic effect
[1]; thalidomide 5 mg/L, As2O3 4 μM, IL-2 200 IU/ml, alone or combined, listed as Arsenic trioxide
  % Late apoptosis: 16.97%
[4]; low concentrations
  concentrations inducing partial differentiation: 0.1-0.5
[4]; relatively high concentrations
  concentrations inducing apoptosis: 0.5-2.0
[5]
  concentrations inducing degradation of PML/RAR-α (and wild type PML): 0.5-2.0

Reference: patent publication US20110256236A1 (priority 2010, published 2011)
